“And” between values parts separate entries of the source, which are not always exact repeats. Equal values may be shown once. Read-outs that look alike come from different tables or passages of the source.
Columns and labels:
K299 lymphoma cells = experiment: Cellular assay, 3 day cell viability (WST-1); type: cell-based; details: 72 h, 3 days, read-out: GTx-K299 IC50
U937 lymphoma cells = experiment: Cellular assay, 3 day cell viability (WST-1); type: cell-based; details: Homo sapiens, U-937, 72 h; 3 days, WST-1; read-out: GTx-U937 IC50
SUDHL-1 lymphoma cells = experiment: Cellular assay, 3 day cell viability (WST-1); type: cell-based; details: Homo sapiens, SU-DHL-1, 72 h; 3 days, WST-1; read-out: GTx-SUDHL-1 IC50
ALK = ALK (Homo sapiens (Human), UniProt Q9UM73); experiment: In vitro kinase activity assay (LANCE TR-FRET); type: biochemical;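 note: kinase reactions with ATP and a poly-GT peptide substrate, phosphorylated product read by time-resolved FRET, 11-point curve from 10^−11 to 10^−5 M, DMSO as negative control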
Sequence of ALK (Q9UM73 19-1620): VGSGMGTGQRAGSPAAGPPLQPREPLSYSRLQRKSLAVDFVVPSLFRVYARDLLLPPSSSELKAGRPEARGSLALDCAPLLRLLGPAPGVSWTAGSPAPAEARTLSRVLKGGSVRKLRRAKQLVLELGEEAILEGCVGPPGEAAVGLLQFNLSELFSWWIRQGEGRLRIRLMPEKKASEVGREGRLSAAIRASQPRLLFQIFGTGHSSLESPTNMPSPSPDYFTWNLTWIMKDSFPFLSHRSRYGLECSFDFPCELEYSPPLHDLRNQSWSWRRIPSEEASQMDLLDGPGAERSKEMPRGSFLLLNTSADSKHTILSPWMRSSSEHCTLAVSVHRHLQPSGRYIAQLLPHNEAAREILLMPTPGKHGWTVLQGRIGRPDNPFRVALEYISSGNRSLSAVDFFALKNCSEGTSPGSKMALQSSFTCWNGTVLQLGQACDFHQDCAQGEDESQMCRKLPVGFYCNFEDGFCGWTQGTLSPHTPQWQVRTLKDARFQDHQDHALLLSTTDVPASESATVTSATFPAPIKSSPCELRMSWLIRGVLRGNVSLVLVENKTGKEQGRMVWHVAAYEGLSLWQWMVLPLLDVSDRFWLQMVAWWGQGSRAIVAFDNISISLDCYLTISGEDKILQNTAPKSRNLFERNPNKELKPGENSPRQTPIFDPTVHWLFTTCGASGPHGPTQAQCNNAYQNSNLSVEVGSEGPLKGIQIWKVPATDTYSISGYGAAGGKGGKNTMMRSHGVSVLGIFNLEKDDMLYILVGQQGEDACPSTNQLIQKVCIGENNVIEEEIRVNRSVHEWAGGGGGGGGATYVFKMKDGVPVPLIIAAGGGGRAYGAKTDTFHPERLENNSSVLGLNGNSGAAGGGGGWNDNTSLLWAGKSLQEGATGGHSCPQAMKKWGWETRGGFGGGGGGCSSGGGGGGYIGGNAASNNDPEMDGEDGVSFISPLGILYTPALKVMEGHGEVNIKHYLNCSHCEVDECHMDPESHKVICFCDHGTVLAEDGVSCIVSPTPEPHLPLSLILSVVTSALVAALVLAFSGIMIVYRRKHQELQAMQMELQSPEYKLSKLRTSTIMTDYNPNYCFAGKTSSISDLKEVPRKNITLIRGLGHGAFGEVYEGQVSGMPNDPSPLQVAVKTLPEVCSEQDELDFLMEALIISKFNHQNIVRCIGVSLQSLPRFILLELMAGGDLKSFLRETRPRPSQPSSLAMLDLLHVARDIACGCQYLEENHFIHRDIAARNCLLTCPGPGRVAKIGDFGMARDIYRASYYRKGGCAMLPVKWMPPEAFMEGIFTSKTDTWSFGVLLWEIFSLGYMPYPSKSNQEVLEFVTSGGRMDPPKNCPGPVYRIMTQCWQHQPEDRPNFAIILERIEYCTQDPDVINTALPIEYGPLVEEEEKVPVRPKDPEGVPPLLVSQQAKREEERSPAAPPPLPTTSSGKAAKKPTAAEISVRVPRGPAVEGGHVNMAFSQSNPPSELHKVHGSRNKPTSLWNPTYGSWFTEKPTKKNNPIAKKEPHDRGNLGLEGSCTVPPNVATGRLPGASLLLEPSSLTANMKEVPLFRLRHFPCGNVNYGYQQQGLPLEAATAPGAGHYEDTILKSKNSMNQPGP

RET = RET (Homo sapiens (Human), UniProt P07949); experiment: In vitro kinase activity assay (LANCE TR-FRET); type: biochemical
ROS = ROS (Homo sapiens (Human), UniProt P08922); experiment: In vitro kinase activity assay (LANCE TR-FRET); type: biochemical
Sequence of ROS (P08922 28-2347): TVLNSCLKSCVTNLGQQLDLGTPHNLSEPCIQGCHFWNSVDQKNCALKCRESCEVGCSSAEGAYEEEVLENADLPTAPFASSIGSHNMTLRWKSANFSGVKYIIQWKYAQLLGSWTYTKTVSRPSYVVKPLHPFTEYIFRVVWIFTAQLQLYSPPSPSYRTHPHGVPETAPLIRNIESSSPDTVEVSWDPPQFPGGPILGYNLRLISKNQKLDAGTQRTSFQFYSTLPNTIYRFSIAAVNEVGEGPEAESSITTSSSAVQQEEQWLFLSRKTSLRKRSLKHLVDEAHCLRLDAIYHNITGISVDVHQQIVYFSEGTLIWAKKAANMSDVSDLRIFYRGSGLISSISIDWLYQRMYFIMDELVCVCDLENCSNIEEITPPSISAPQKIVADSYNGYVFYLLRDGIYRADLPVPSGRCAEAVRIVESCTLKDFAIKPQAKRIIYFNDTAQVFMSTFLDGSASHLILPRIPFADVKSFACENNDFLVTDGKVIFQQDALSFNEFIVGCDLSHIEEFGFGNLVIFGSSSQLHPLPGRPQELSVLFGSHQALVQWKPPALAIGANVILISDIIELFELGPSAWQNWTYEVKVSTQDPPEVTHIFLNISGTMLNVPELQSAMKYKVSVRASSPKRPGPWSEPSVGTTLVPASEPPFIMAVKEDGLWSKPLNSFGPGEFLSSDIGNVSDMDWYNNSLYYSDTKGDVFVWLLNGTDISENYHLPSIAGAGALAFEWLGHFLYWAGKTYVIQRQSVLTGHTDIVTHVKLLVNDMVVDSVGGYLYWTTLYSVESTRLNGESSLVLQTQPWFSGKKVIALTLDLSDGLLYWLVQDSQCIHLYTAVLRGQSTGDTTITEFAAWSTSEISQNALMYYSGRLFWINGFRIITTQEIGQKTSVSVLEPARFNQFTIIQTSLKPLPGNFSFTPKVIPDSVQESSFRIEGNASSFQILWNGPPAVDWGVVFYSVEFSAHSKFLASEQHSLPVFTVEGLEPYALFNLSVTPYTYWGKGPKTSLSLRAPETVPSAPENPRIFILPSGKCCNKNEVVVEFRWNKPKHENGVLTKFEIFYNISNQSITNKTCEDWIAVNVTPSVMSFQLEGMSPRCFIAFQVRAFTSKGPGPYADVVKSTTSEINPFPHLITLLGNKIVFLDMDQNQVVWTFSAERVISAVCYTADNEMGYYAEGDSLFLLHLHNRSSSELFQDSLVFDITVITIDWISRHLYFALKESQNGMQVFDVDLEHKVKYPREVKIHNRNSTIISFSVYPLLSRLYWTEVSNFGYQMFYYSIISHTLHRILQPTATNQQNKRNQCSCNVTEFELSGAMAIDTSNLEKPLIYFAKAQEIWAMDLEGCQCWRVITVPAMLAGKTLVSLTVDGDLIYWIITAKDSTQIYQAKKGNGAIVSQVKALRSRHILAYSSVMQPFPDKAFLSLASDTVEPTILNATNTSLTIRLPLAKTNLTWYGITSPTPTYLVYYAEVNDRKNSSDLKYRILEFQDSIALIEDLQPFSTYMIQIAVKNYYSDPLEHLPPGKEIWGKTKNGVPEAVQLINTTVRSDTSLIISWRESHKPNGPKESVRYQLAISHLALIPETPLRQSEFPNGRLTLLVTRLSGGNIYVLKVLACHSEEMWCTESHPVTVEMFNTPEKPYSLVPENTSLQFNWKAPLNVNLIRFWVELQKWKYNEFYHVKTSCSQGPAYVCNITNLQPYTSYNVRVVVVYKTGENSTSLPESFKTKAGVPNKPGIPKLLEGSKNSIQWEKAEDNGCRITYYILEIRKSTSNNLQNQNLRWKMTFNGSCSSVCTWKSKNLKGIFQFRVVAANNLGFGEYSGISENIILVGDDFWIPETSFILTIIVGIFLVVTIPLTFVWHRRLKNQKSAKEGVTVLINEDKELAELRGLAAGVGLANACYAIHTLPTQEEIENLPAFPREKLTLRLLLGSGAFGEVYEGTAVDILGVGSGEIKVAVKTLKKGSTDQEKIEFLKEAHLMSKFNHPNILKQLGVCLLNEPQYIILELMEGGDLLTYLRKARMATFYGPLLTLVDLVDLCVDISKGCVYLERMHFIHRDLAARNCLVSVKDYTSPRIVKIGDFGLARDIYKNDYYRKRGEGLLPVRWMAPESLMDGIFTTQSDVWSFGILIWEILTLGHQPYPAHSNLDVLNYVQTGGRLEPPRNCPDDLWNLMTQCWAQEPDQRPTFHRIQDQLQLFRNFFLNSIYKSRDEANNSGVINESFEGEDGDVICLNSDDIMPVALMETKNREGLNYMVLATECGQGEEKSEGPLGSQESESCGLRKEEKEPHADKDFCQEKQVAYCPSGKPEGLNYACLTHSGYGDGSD

TrkA = TrkA (Homo sapiens (Human), UniProt P04629); experiment: In vitro kinase activity assay (LANCE TR-FRET); type: biochemical;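 note: kinase reaction with poly-GT peptide substrate and ATP, phosphorylated product quantified by time-resolved FRET, eleven-point dose curves from 10^−11 to 10^−5 M in triplicate, DMSO as negative control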
Sequence of TrkA (P04629 33-796): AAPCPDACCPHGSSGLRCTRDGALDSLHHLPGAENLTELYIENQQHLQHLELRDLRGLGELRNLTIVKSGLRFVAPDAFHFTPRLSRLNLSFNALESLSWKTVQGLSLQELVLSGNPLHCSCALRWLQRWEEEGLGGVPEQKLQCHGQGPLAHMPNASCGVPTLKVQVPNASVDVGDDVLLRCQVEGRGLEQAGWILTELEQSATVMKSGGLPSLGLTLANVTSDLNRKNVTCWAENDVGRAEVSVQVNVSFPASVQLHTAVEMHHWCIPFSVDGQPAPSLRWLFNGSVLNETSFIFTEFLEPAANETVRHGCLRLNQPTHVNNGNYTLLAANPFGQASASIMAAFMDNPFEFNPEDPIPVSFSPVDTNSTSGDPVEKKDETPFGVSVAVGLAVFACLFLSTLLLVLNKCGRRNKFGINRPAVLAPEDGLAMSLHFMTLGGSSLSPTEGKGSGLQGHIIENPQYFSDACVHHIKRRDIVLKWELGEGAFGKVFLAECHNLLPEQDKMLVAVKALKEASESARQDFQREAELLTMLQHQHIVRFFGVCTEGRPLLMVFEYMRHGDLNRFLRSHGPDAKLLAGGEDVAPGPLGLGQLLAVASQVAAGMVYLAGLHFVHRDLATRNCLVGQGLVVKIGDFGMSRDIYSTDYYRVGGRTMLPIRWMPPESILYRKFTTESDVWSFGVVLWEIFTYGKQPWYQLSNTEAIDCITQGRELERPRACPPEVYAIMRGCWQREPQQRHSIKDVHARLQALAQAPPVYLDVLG

[1] = Rat pharmacokinetics / bioavailability; type: in vivo
[2] = Caco-2 cell permeation study; type: in vitro ADME; details: human; for Papp A→B at 2 h, 10 μM: Caco-2, pH 6.5, 10 μM, apical pH 6.5, 2 h; for Papp B→A at 2 h, 10 μM: Caco-2, pH 7.4, 10 μM, basolateral pH 7.4, 2 h;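 for all read-outs here: Caco-2 monolayers grown for 21–28 days with integrity confirmed by TEER, apical buffer HBSS with MES, basolateral buffer HBSS with HEPES, compound levels quantified by LC/MS/MS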
in vitro [3] = details: human, microsomes
Caco-2 cells = experiment: Caco-2 cell permeation study; type: in vitro ADME; details: 10 μM;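 note: Caco-2 monolayers grown for 21–28 days with integrity confirmed by TEER, apical buffer HBSS with MES, basolateral buffer HBSS with HEPES, compound levels quantified by LC/MS/MS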
in vitro [4] = details: rat, microsomes

| SMILES | IC50 (K299 lymphoma cells) | IC50 (U937 lymphoma cells) | IC50 (SUDHL-1 lymphoma cells) | IC50 (ALK; read-out: ALK (nM) IC50) | IC50 (ALK; read-out: GTx-ALK IC50) | IC50 (TrkA; read-out: GTx-TrKA IC50) | IC50 (TrkA; read-out: TrkA (nM) IC50) | also measured |
| --- | --- | --- | --- | --- | --- | --- | --- | --- |
| CC(Cc1cc(F)ccc1F)Nc1cc[nH]c(=O)c1-c1nc2cc3c(cc2[nH]1)CN(C(C)C)C3=O (stereo not shown) [Compound 37, 2-(4-((1-(2,5-Difluorophenyl)propan-2-yl)amino)-2-oxo-1,2-dihydropyridin-3-yl)-6-isopropyl-6,7-dihydroimidazo[4,5-f]isoindol-5(1H)-one] | 1830 nM | > 3000 nM | 2770 nM |  |  |  |  |  |
| Cc1ccc(F)cc1CC(C)Nc1cc[nH]c(=O)c1-c1nc2cc3c(cc2[nH]1)C(=O)N(C(C)C)C3=O (stereo not shown) [Compound 38, 2-(4-((1-(5-Fluoro-2-methylphenyl)propan-2-yl)amino)-2-oxo-1,2-dihydropyridin-3-yl)-6-isopropylimidazo[4,5-f]isoindole-5,7(1H,6H)-dione] | > 3000 nM | > 3000 nM | 2800 nM |  |  |  |  |  |
| Cc1ccc(F)cc1CC(C)Nc1cc[nH]c(=O)c1-c1nc2cc3c(cc2[nH]1)CN(C(C)C)C3=O (stereo not shown) [Compound 39, 2-(4-((1-(5-Fluoro-2-methylphenyl)propan-2-yl)amino)-2-oxo-1,2-dihydropyridin-3-yl)-6-isopropyl-6,7-dihydroimidazo[4,5-f]isoindol-5(1H)-one] | > 3000 nM | > 3000 nM | 2800 nM |  |  |  |  |  |
| CC(Cc1c(F)c(F)cc(F)c1F)Nc1cc[nH]c(=O)c1-c1nc2cc3c(cc2[nH]1)C(=O)N(C)C3=O (stereo not shown) [Compound 41, 2-(4-(1-(2,3,5,6-Tetrafluorophenyl)propan-2-ylamino)-2-oxo-1,2-dihydropyridin-3-yl)-6-methylimidazo[4,5-f]isoindole-5,7(1H,6H)-dione] |  |  |  | > 10000 nM | > 10000 nM | > 10000 nM | > 10000 nM | IC50 (RET; read-out: GTx-RET IC50): > 10000 nM; IC50 (RET; read-out: RET (nM) IC50): > 10000 nM; IC50 (ROS; read-out: GTx-ROS IC50): 5 nM; IC50 (ROS; read-out: ROS (nM) IC50): 4.53 nM |
| CC(Cc1c(F)c(F)cc(F)c1F)Nc1cc[nH]c(=O)c1-c1nc2cc3c(cc2[nH]1)C(=O)N(C)C3 (stereo not shown) [Compound 42, 6-Methyl-2-(2-oxo-4-(1-(2,3,5,6-tetrafluorophenyl)propan-2-ylamino)-1,2-dihydropyridin-3-yl)-6,7-dihydroimidazo[4,5-f]isoindole-5(1H)-one] | > 10000 nM | > 10000 nM | > 10000 nM | 17.5 nM | 18 nM | 7 nM | 7.27 nM | IV_AUC0-1440 Rat 10 mpk ([1]; 10 mg/kg I.V.): 232 µg·min/mL; PO_AUC0-1440 Rat 10 mpk ([1]; 10 mg/kg P.O.): 5.48 µg·min/mL; bioavailability ([1]; male, Sprague-Dawley, plasma, po, 10 mg/kg P.O., read-out: Rat F %): 2.36%; efflux ratio at 2 h, 10 μM ([2]; Caco-2, Caco-2): 1; Papp A→B at 2 h, 10 μM [2]: 0.24 ×10⁻⁶ cm/s; Papp B→A at 2 h, 10 μM [2]: 0.24 ×10⁻⁶ cm/s |
| CC(Cc1c(F)c(F)cc(F)c1F)Nc1cc[nH]c(=O)c1-c1nc2cc3c(cc2n1C)CN(C)C3=O (stereo not drawn) [Compound 43, Trans-1,6-Dimethyl-2(2-oxo-4-(1-(2,3,5,6-tetrafluorophenyl)propan-2-ylamino)-1,2-dihydropyridin-3-yl)-6,7-dihydroimidazo[4,5-f]isoindol-5(1H)-one] | > 10000 nM | > 10000 nM | > 10000 nM | > 10000 nM | > 10000 nM | 9500 nM | 9490 nM |  |
| Cc1ccc(F)cc1CC(C)Nc1cc[nH]c(=O)c1-c1nc2cc3c(cc2[nH]1)CNC3=O (stereo not shown) [Compound 52] |  |  |  |  |  |  |  | microsomal CLint at 0.5 μM (in vitro [3]; pH 7.4, Human LM-P1 CL (ul/min/mg)): 134 µL/min/mg; half-life at 0.5 μM (in vitro [3]; pH 7.4, Human LM-P1 Half-life (min)): 5.17 min; Papp A→B at 2 h, 10 μM [2]: 9.3 ×10⁻⁶ cm/s; Papp B→A at 2 h, 10 μM [2]: 7.4 ×10⁻⁶ cm/s; Papp (10−6 cm/sec) A to B (Caco-2 cells; apical pH 6.5, 2 h): 5.0 10−6 cm/sec and 8.9 10−6 cm/sec; Papp (10−6 cm/sec) B to A (Caco-2 cells; basolateral pH 7.4, 2 h): 10.2 10−6 cm/sec and 5.2 10−6 cm/sec; half-life at 0.5 μM (in vitro [4]; pH 7.4): 2.51 min; microsomal CLint at 0.5 μM (in vitro [4]; pH 7.4, Rat LM-P1 CL (ul/min/mg)): 276 µL/min/mg |
| CC(C)NCC(O)COc1cccc2ccccc12 (stereo not shown) [Propranolol, reference compound] |  |  |  |  |  |  |  | Pos Ctrl Recovery (Caco-2 cells; positive control): 63% and 58% and 26% |

Source: US8822500B2, “Tyrosine kinase inhibitors” (Chembridge Corporation, priority 2008, dated 2014)
